Publication PMC6779273, “Emodepside has sex-dependent immobilizing effects on adult Brugia malayi due to a differentially spliced binding pocket in the RCK1 region of the SLO-1 K channel” (PLoS Pathogens, 2019)

How the values were obtained:
[1] = target: T1, Bma-SLO-1A (SLO-1 K channel, splice variant A) (Brugia malayi, UniProt A0A0H5S223); experiment: two-electrode voltage clamp, Xenopus laevis oocytes expressing slo-1a (small but detectable outward current); format: cell-based
T1 construct: full-length slo-1a splice variant
Description: two-electrode voltage clamp, Xenopus laevis oocytes expressing slo-1a (small but detectable outward current) on Bma-SLO-1A (SLO-1 K channel, splice variant A) | When we expressed slo-1a, or slo-1a with slo-1f (Fig 4C & 4D), we found much smaller, but still detectable currents.

[2] = target: T2, Bma-SLO-1F (SLO-1 K channel, splice variant F) (Brugia malayi, UniProt A0A0J9Y9H3); experiment: two-electrode voltage clamp, Xenopus laevis oocytes expressing slo-1f (activation of outward current); format: cell-based
T2 construct: full-length slo-1f splice variant

For `CC(C)C[C@H]1C(=O)O[C@H](Cc2ccc(N3CCOCC3)cc2)C(=O)N(C)[C@@H](CC(C)C)C(=O)O[C@H](C)C(=O)N(C)[C@@H](CC(C)C)C(=O)O[C@H](Cc2ccc(N3CCOCC3)cc2)C(=O)N(C)[C@@H](CC(C)C)C(=O)O[C@H](C)C(=O)N1C` [emodepside], the EC50 [1] was greater than 30 µM and the EC50 [2] was 5 ± 1 µM.
